{"source": "patent US20100099756A1", "about": "“USES OF INCENSOLE, INCENSOLE ACETATE AND DERIVATIVES THEREOF” (YISSUM RESEARCH DEVELOPMENT COMPANY OF THE HEBREW …, priority 2006, published 2010)", "type_in_all_cases": "cell-based", "key": {"mouse TRPV3-YFP [1]": {"target": "T1, mouse TRPV3-YFP (Mus musculus, UniProt Q8K424)", "T1 construct": "expressed in transfected cells", "T1 sequence (Q8K424 1-791)": "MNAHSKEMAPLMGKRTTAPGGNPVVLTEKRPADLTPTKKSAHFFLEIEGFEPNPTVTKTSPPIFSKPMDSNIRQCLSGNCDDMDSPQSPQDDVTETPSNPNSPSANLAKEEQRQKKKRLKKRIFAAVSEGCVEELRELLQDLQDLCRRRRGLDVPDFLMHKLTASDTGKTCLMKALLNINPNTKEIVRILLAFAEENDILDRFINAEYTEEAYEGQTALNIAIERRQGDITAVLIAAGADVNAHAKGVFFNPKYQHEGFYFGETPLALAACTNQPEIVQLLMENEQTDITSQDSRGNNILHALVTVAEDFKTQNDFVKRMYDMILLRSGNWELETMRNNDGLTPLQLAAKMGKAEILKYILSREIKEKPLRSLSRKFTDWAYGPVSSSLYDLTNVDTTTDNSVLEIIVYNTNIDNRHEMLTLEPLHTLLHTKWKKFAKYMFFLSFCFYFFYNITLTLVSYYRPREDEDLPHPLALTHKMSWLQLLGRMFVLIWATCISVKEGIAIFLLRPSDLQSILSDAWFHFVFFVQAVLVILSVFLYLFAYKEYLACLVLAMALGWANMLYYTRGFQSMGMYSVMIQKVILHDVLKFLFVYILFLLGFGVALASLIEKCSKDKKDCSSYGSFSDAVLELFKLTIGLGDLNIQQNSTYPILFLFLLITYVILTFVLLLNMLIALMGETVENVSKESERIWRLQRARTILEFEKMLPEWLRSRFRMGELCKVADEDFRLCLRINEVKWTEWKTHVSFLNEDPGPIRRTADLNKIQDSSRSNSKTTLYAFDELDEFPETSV", "assay": "Calcium imaging of HEK293 cells expressing mouse TRPV3-YFP", "conditions": "IA 100 μM; 2-APB positive control", "protocol": "(§1) All error bars indicate SEM; p values in all subfigures but c represent analysis with one-way ANOVA Bonferroni's post hoc.\nTRPV3-YFP [O'dell, D. K., Rimmerman, N., Pickens, S. R. & Walker J. M. Fatty acyl amides of endogenous tetrahydroisoquinolines are active at the recombinant human TRPV1 receptor. […] Med. Chem. 15, 6164-6169 (2007)], TRPV4 and mock-transfected cell lines were cultured in DMEM 1× with L-glutamine (Mediatech, Inc. Herndon, Va.), containing 1% penicillin-streptomycin (Invitrogen, Carlsbad, Calif.) and 10% foetal bovine serum.\n(§2) Calcium imaging of HEK 293 cells. TRPV1, TRPV3, and TRPV4 expressing HEK293 cells were plated 24-48 h before imaging in 96 well plates, loaded with 3 μM Fura-2 AM and imaged as previously described [O'dell, D. K., Rimmerman, N., Pickens, S. R. & Walker J. M. Fatty acyl amides of endogenous tetrahydroisoquinolines are active at the recombinant human TRPV1 receptor. […] Med. Chem. 15, 6164-6169 (2007)].\n(§3) For single cell calcium imaging, HEK293-rat TRPV2 and HEK293-mouse TRPV3-YFP expressing cells were plated on collagen-coated glass cover slips. Cells were loaded for 60 min with 3 μM Fura-2 AM.\nData analysis of calcium imaging data. Analysis of calcium imaging data was done using a non-linear regression curve fit (Graphpad 4 Prism, San Diego, Calif.). t tests and one way ANOVA were calculated using SPSS (Chicago, Ill.). In the keratinocyte experiments, drug-induced response for each cell was taken as the maximal post-drug measurements over time minus the average of the last 5 pre-drug measurements. Averaged drug responses over 30 randomly selected cells per coverslip were analyzed with two-tailed unpaired t tests."}, "rat-TRPV2": {"target": "T2, rat-TRPV2 (Rattus norvegicus, UniProt Q9WUD2)", "T2 construct": "expressed in transfected cells; host or cells: HEK293 (transient, lipofectamine)", "T2 sequence (Q9WUD2 whole entry)": "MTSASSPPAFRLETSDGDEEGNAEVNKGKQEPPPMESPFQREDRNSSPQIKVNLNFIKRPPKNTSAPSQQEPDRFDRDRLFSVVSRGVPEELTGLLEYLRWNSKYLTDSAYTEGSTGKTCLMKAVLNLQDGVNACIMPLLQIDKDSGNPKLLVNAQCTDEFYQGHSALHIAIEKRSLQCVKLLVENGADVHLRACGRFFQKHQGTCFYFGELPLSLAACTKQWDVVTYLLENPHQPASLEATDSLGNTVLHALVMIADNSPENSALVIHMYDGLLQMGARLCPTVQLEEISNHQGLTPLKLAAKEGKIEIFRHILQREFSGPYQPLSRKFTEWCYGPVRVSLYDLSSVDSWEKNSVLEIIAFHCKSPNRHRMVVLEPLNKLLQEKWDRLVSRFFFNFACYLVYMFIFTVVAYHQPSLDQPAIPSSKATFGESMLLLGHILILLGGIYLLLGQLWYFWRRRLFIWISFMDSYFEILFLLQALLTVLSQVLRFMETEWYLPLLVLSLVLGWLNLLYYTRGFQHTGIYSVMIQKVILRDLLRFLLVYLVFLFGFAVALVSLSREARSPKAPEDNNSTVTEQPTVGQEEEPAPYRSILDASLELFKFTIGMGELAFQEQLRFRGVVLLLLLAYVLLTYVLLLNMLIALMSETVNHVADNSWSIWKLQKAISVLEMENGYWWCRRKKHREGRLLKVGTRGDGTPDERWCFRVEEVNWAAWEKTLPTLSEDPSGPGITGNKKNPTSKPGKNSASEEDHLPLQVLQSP", "assay": "Calcium imaging of HEK293 cells transiently transfected with rat-TRPV2", "conditions": "IA 100 μM", "description": "as §1\n(§4) HEK293 cells were transiently transfected with a rat TRPV2 plasmid using lipofectamine reagent (Invitrogen, Carlsbad, Calif.) according to manufacturer's protocol. They were then maintained in Dulbecco's modified Eagle Medium/10% fetal calf serum supplemented with Penicillin, Streptomycin, and L-glutamine. Primary keratinocytes from TRPV3-deficient and TRPV3+/+ mouse pups (day 1-4) were harvested and cultured as described previously [Chung, M. K., Lee, H., Mizuno, A., Suzuki, M. & Caterina, M. J. TRPV3 and TRPV4 mediate warmth-evoked currents in primary mouse keratinocytes. J. Biol. Chem. 279, 21569-21575 (2004)].\nas §3"}, "mouse TRPV3-YFP [2]": {"target": "T1, mouse TRPV3-YFP", "assay": "Whole-cell voltage-clamp, TRPV3-YFP expressing HEK293 cells", "conditions": "IA 200 μM; 2-APB 100 μM; charge −85 to −45 mV", "protocol": "(§5) Electrophysiological recording. Currents were recorded using whole-cell voltage-clamp. Pipettes were pulled from microcapillary glass (A-M Systems). A coverslip containing cells was transferred to a 300 μL chamber that was constantly perfused (1-2 mL/min) with external solution. Voltage protocols were generated and data were digitized and recorded using Pulse (HEKA Elektronik) software in conjunction with an Axopatch 200A amplifier (Axon Instruments), and the data analyzed using an in-house Visual Basic (Microsoft) analysis program.\n(§6) The external solution contained (in mM): 120 NaCl, 5 KCl, 1 MgCl2, 2 CaCl2, 10 Glucose and 20 HEPES, pH 7.4 with NaOH. The measured charge (pC) was defined as the charge elicited between -85 and -45 mV by a ramping voltage stimulus (−85 mV to +35 mV, 0.54 mV/msec; holding potential -55 mV). Currents were sampled at 5 kHz. Experimental and control cells were alternated whenever possible. Control values were obtained from adjacent cells with no detectable YFP fluorescence, presumed to be non-TRPV3-expressing."}, "mouse TRPV3-YFP [3]": {"tested_on": "mouse TRPV3-YFP", "assay": "Whole-cell voltage-clamp, TRPV3-YFP expressing HEK293 cells", "conditions": "IA 200 μM; 2-APB 100 μM; cells not expressing TRPV3", "protocol": "as §5, §6"}, "rat TRPV4": {"target": "T3, rat TRPV4 (Rattus norvegicus, UniProt Q9ERZ8)", "T3 construct": "expressed in transfected cells; host or cells: HEK293 cell line", "T3 sequence (Q9ERZ8 whole entry)": "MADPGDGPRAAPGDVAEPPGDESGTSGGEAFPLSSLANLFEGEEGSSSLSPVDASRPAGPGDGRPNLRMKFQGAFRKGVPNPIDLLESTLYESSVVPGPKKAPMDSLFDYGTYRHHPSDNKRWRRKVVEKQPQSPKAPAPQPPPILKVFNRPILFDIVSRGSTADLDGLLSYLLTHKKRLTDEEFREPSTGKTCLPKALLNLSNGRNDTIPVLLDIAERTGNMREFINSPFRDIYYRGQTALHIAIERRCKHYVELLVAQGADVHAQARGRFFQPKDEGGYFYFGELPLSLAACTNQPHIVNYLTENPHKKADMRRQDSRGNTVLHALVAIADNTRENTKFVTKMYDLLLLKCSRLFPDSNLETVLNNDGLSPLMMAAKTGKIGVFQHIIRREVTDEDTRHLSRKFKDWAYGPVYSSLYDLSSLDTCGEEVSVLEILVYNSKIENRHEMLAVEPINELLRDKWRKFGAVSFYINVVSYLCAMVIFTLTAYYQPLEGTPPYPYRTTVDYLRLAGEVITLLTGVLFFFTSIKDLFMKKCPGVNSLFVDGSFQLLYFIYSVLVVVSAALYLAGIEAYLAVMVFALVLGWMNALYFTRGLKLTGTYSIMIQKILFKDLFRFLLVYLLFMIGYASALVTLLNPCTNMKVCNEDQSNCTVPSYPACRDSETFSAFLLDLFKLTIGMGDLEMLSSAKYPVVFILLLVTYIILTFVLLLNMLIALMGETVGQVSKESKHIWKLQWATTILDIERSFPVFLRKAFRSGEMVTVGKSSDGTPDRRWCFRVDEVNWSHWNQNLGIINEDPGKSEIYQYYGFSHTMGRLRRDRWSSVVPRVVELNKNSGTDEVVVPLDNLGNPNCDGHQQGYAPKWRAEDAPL", "assay": "Calcium imaging of TRPV4 transfected HEK293 cells", "conditions": "IA 100 μM, compared to vehicle", "protocol": "as §1\nTRPV3-YFP [O'dell, D. K., Rimmerman, N., Pickens, S. R. & Walker J. M. Fatty acyl amides of endogenous tetrahydroisoquinolines are active at the recombinant human TRPV1 receptor. Bioorg. Med. Chem. 15, 6164-6169 (2007)], TRPV4 and mock-transfected cell lines were cultured in DMEM 1× with L-glutamine (Mediatech, Inc. Herndon, Va.), containing 1% penicillin-streptomycin (Invitrogen, Carlsbad, Calif.) and 10% foetal bovine serum.\nCalcium imaging of HEK 293 cells. TRPV1, TRPV3, and TRPV4 expressing HEK293 cells were plated 24-48 h before imaging in 96 well plates, loaded with 3 μM Fura-2 AM and imaged as previously described [O'dell, D. K., Rimmerman, N., Pickens, S. R. & Walker J. M. Fatty acyl amides of endogenous tetrahydroisoquinolines are active at the recombinant human TRPV1 receptor. Bioorg. Med. Chem. 15, 6164-6169 (2007)]."}, "TRPV3": {"target": "T4, TRPV3 (Mus musculus, UniProt Q8K424)", "T4 sequence (Q8K424 1-791)": "T1 sequence (Q8K424 1-791)", "assay": "Calcium imaging of TRPV3+/+ and TRPV3−/− primary keratinocytes", "design": "endogenous in cells; host or cells: primary keratinocytes from TRPV3+/+ mouse pups (day 1-4); TRPV3-/- cells as control", "conditions": "IA 500 μM; camphor 10 mM", "description": "as §4\nCalcium imaging of TRPV3^+/+ and TRPV3^−/− keratinocytes. Primary keratinocytes from TRPV3-deficient and WT mouse pups (day 1-4) were harvested and cultured as described [Chung, M. K., Lee, H., Mizuno, A., Suzuki, M. & Caterina, M. J. TRPV3 and TRPV4 mediate warmth-evoked currents in primary mouse keratinocytes. J. Biol. Chem. 279, 21569-21575 (2004)].\nCells were plated on glass coverslips (10^5/cm^2) and incubated for 48-60 h, then loaded with fura-2 AM (20 μM, 0.04% pleuronic acid, 32° C. for 1 h) in imaging buffer containing (in mM): 130 NaCl, 2.5 CaCl2, 0.6 MgCl2, 10 HEPES, 1.2 NaHCO3, 10 glucose, pH 7.45. Ratiometric Ca^2+ imaging was performed as previously described [O'dell, D. K., Rimmerman, N., Pickens, S. R. & Walker J. M. Fatty acyl amides of endogenous tetrahydroisoquinolines are active at the recombinant human TRPV1 receptor. Bioorg. Med. Chem. 15, 6164-6169 (2007)]. Drug was added to the bath following a period of baseline recording. Calcium measurements were made from 30 randomly selected cells per coverslip.\nData analysis of calcium imaging data. Analysis of calcium imaging data was done using a non-linear regression curve fit (Graphpad 4 Prism, San Diego, Calif.). t tests and one way ANOVA were calculated using SPSS (Chicago, Ill.). […] Averaged drug responses over 30 randomly selected cells per coverslip were analyzed with two-tailed unpaired t tests."}, "TRPV1": {"target": "TRPV1 (Homo sapiens, UniProt Q8NER1)", "sequence (Q8NER1 whole entry)": "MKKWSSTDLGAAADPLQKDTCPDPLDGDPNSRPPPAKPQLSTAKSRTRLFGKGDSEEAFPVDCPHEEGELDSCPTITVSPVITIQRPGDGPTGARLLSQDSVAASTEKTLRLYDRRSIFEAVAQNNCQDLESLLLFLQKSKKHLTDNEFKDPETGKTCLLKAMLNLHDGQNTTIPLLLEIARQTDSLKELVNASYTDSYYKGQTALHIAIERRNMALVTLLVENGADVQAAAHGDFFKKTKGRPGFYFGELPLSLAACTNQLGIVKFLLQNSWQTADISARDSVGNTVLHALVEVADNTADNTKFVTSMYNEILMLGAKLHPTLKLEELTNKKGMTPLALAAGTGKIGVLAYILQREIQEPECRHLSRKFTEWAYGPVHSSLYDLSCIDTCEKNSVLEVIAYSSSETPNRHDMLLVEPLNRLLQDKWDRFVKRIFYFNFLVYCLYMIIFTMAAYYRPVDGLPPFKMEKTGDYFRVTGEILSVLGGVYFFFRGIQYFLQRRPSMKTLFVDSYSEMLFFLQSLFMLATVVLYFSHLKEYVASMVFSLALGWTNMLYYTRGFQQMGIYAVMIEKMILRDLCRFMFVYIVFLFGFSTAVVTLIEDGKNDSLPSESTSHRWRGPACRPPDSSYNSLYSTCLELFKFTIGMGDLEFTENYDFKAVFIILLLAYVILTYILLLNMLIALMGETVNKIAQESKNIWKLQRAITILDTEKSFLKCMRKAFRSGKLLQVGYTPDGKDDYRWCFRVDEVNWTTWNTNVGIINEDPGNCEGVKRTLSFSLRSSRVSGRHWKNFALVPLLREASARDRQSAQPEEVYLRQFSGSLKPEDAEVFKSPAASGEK", "assay": "Calcium imaging of TRPV1-transfected HEK293 cells", "conditions": "IA 100 μM, compared to vehicle", "protocol": "as §1\nHuman HEK 293 cells stably expressing TRPV1 were a kind gift from Merck Research Laboratories (Whitehouse Station, N.J.). Cells were cultured in minimal essential medium, Eagle, modified with non-essential amino acids, 1 mM sodium pyruvate, 2 mM L-glutamine and 1.5 g/L sodium bicarbonate (ATCC, Mabassas, Va.), containing 1% Penicillin-streptomycin, and 10% foetal bovine serum. Cells were passaged three times a week using Trypsin-EDTA 1× (Invitrogen, Carlsbad, Calif.) and grown under 5% CO2 at 37° C.\nas §2"}, "IκBα degradation": {"tested_on": "IκBα degradation", "assay": "IκBα degradation in TNFα-stimulated HeLa cells (Western blot)", "conditions": "HeLa cells pre-incubated 2 hrs, then TNFα 20 ng/ml for 20 minutes", "protocol": "HeLa cells were pre-incubated with IA (FIG. 1A) or IN (FIG. 1B) at the indicated concentrations for 2 hrs prior to 20 minutes exposure to TNFα (20 ng/ml). At least three more experiments were repeated with highest indicated dose, resulting similarly.\nIκBα Degradation. HeLa cells were pre-incubated with IA (50 μg/ml, dissolved in ethanol) for 2 hrs, and then stimulated for 20 minutes with TNFα (20 ng/ml, Emeryville, Calif., USA). After removing the slides from plates for immonostaining (see below), proteins were extracted from remaining cells in the plates. Proteins were extracted from cells in NP-40 lysis buffer. Total protein concentration was determined using the Bradford method. Lysates were then analyzed either by Western blotting (WB).\nWestern Blot (WB). Following separation by SDS-PAGE, proteins were blotted to a polyvinylidene difluoride (PVDF) membrane (Millipore). The membrane was blocked in 5% (w/v) milk powder and then incubated in TBST containing the primary antibody and 2% (w/v) milk powder. All phospho-specific antibodies were purchased from Cell signaling Inc. αIκBa, αp65 and αCOX2 antibodies from Santa Cruz Inc. (California, USA). After binding of an appropriate secondary antibody coupled to horseradish peroxidase, proteins were visualized by enhanced chemiluminiscence according to the instructions of the manufacturer (Amersham Lifescience)."}}, "data": [{"smiles": "NCCOB(c1ccccc1)c1ccccc1", "note": "[2-APB, 2-aminoethyl diphenylborinate, reference compound]", "values": [{"measurement": "calcium influx vs vehicle", "setting": "mouse TRPV3-YFP [1]", "result": "evoked robust calcium increases"}, {"measurement": "calcium influx in rat-TRPV2 transfected HEK293 cells", "setting": "rat-TRPV2", "result": "robustly increased calcium"}, {"measurement": "current activation in TRPV3(+) HEK293 cells", "setting": "mouse TRPV3-YFP [2]", "result": "activates currents"}, {"measurement": "current activation in TRPV3(−) control cells", "setting": "mouse TRPV3-YFP [3]", "result": "not in TRPV3(−) cells"}]}, {"smiles": "CCCCCCCCCC(=O)O[C@@H]1[C@@H](C)[C@@]2(O)[C@@H](C=C(CO)C[C@@]3(O)C(=O)C(C)=C[C@@H]23)[C@@H]2C(C)(C)[C@]12OC(=O)CCCCCCCCC", "note": "[4αPDD, reference compound]", "values": [{"measurement": "calcium influx in TRPV4 transfected HEK293 cells", "setting": "rat TRPV4", "result": "robust calcium increase"}]}, {"smiles": "CC12CCC(CC1=O)C2(C)C", "note": "(centres unmarked) [Camphor, camphor, reference compound]", "values": [{"measurement": "calcium influx in primary keratinocytes from WT mice", "setting": "TRPV3", "result": "showed a similar effect"}]}, {"smiles": "COc1cc(CNC(=O)CCCC/C=C/C(C)C)ccc1O", "note": "[Capsaicin, reference compound]", "values": [{"measurement": "calcium influx in TRPV1-transfected HEK293 cells", "setting": "TRPV1", "result": "robust calcium increase"}]}, {"smiles": "C/C1=C\\CC2(C(C)C)CCC(C)(O2)C(O)CC/C(C)=C/CC1", "note": "(centres unmarked) [IN, incensole]", "values": [{"measurement": "IκBα degradation", "setting": "IκBα degradation", "result": "inhibited IκBα degradation in a dose dependent manner"}]}]}
